Experimental data published in patent US5876715A, “Antibodies that bind novel carbohydrate ligands (myelorollins) that cause E-selectin dependent cell rolling, and uses thereof” (The Biomembrane Institute, priority 1996, dated 1999).
“Also recorded” adds a separate entry of the source.

Test system: E-selectin-expressing CHO cells
Assay: Rolling and adhesion of E-selectin-expressing CHO cells on ganglioside-coated beads under dynamic flow (parallel plate laminar flow chamber)
Assay type: cell-based, Chinese hamster
Conditions: for rolling and adhesion of E-selectin-expressing CHO cells / adhesion of E-selectin-expressing CHO cells / rolling of E-selectin-expressing CHO cells: dynamic flow conditions, shear stress 0.6-12 dynes/cm^2; for rolling and adhesion of E-selectin-expressing CHO cells at 100 ng ganglioside: 100 ng of single fraction or mixture of 50 ng each, 1 μm beads, 4.8 and 2.4 dynes/cm^2 (FIG. 3A); for rolling and adhesion of E-selectin-expressing CHO cells at low ganglioside quantity: 0.05-0.1 ng ganglioside per spot (mixture 0.05 ng each), 1 μm beads (FIGS. 3B, 4A, 4B)
Text: FIGS. 2A-2E show rolling and adhesion of E-selectin-expressing CHO cells to polystyrene beads coated with various gangliosides under dynamic flow conditions. Various poly-LacNac gangliosides were quantitatively adsorbed on beads affixed to glass microscope slides as described in the Materials & Methods section in the EXAMPLE. These polystyrene beads affixed on galss plates are resistant to dynamic flow. GSL coated on beads are therefore very stable in dynamic flow. Slides were blocked by placing 2% BSA in PBS at room temp for 1 hr, and assembled in a parallel-plate laminar-flow chamber. E-selectin-expressing CHO cells were freshly harvested and suspended in RPMI medium (1×10^5 cells/mL). The cell suspensions were placed in an infusion pump connected to the flow chamber, and infused into the assembly at various laminar flow rates. Cell movements were observed under phase-contrast microscope and recorded by videocassette recorder. Numbers of rolling cells (.smallcircle.) and adherent (nonrolling) cells (.circle-solid.), in at least 10 microscope fields, at four different shear stresses (dynes/cm^2; see abscissa), were plotted.
Polystyrene latex beads ([…] or 1 μm) used as carriers of GSLs as above were suspended in ethanol. 1 μL aliquots of suspension were placed on precleaned and specially treated microscope slides (Labcraft Superfrost® Plus, Curtin Matheson Scientific, Houston, Tex.). Beads were distributed homogeneously on the glass surface within a circular spot with diameter about 1 cm. Slides were heated at 150° C. for 50 sec, which caused the beads to adhere strongly to the surface such that they could not be washed off by water stream at various velocities. Gangliosides dissolved in IHW at the same molar concentration were applied to latex beads affixed on the slides; namely, 1 μL aliquots containing 50-100 or 0.05-0.1 ng ganglioside were placed on the center of a circular spot. The ganglioside thus became affixed to the bead surface.
Slides prepared as above, as they are or after treatment consisted of incubating said slides for at least an hour at room temperature with 3% BSA prewarmed at 37° C. and washing with PBS containing CA^2+ /Mg^2+ (i.e., PBS(+)) were placed in a parallel plate laminar flow chamber connected to an infusion pump (model 935, Harvard Apparatus, Cambridge, Mass.). The assembly, originally described by Lawrence et al. (Lawrence et al., 1990, Blood 75:227-237; Lawrence and Springer, 1991, Cell 65:859-873), simulates the flow shear stress present in physiological microvascular environments. A laminar flow with defined rate and wall shear stress is achieved by manipulation of the infusion pump, which is connected to the inlet of the flow chamber. A suspension of E- or P-selectin-expressing CHO cells (1×10^5 /mL in FIGS. 2A-2E, 2×10^5/ cells mL in FIG. 3A, 5×10^5 /cells mL in FIGS. 3B, 4A and 4B), freshly harvested from culture with EDTA, washed, and resuspended in 1% FCS-RPMI medium, was infused into the assembly at various laminar flow rates. Cell movements were observed under inverted phase-contrast microscope (Diaphot-TMD, Nikon) and recorded by time-lapse videocassette recorder. Cell rolling and adhesion were observed, and numbers of rolling and adherent cells during a 2 min period at shear stresses, from 0.6-12.0 dynes/cm^2 were counted from at least 10 fields on videotape. Wall shear stress (T) was calculated by the equation of Lawrence et al. (Lawrence et al., 1990 Blood 75:227-237; Lawrence et al., 1987, Blood 70: 1284-1290): T=3 μQ/2ba^2, where μ=coefficient of viscosity (1.0 cP), Q=volumetric flow rate (cm^3 /sec), a=half channel height (in this case, 5.7×10^-3 cm), and b=channel width (1.3 cm).
10, 13-1, and 14 (containing Str. 4-5, Str. 7-8, and Str. 9-12 in Table 1, respectively). […] 10 and 14, which have myelorollin structure and lack SLe^x epitope (FIG. 4). Polystyrene beads were affixed to glass microscope slides. Various gangliosides were coated as described in Materials & Methods. […]

| Substance | rolling and adhesion of E-selectin-expressing CHO cells | rolling and adhesion of E-selectin-expressing CHO cells at 100 ng ganglioside (dynamic flow) | rolling and adhesion of E-selectin-expressing CHO cells at low ganglioside quantity (dynamic flow) | adhesion of E-selectin-expressing CHO cells | rolling of E-selectin-expressing CHO cells | other results |
| --- | --- | --- | --- | --- | --- | --- |
| VIII^3 NeuAcIII^3 FucnLc8 Cer [Fr. 10-2] | strong rolling and adhesion | comparable rolling and Vadhesion; also recorded: comparable to each other; also recorded: comparable adhesion | still produced marked rolling and adhesion | – | – | rolling and adhesion of E-selectin-expressing CHO cells at 100 ng ganglioside (dynamic flow, listed as 10-2): comparable; rolling and adhesion of E-selectin-expressing CHO cells at low ganglioside quantity (dynamic flow, listed as 10-2): still produced marked rolling/adhesion |
| VIII^3 NeuAcV^3 FucnLc8 Cer [Fr. 10-1] | strong rolling and adhesion | comparable rolling and Vadhesion; also recorded: comparable to each other; also recorded: comparable adhesion | did not | – | – | rolling and adhesion of E-selectin-expressing CHO cells at 100 ng ganglioside (dynamic flow, listed as 10-1): comparable |
| VI^3 NeuAcV^3 FucIII^3 FucnLc6 Cer [SLe^x -Le^x, reference compound] | weaker than myelorollin structures; also recorded: weaker than myeloglycan or myelorollin structures | – | no rolling or adhesion; also recorded: no rolling and adhesion observed; also recorded: essentially no cell rolling and adhesion; also recorded: did not cause any E-selectin-dependent cell rolling or adhesion | Low level of adhesion without rolling; also recorded: adherent, but not rolling; also recorded: significantly lower than for Fr. 13-1 or 14; also recorded: only weak adhesion compared to Fr. 10-1, 10-2, 13-1 and 14; also recorded: relatively weak adhesion compared to Fr. 10-1, 10-2, 13-1, and 14 | not observed (or barely observed); also recorded: No rolling was observed | adhesion of E-selectin-expressing CHO cells (listed as Str. 3): did produce cell adhesion, but to a lesser extent than the myelorollin fractions; also recorded: lower level of adhesion; rolling of E-selectin-expressing CHO cells (listed as Str. 3): no cell rolling; rolling of E-selectin-expressing CHO cells (listed as sialyl Le^x -Le^x): No rolling was observed; rolling number (dynamic flow, 4 μm beads, every field at all shear stresses (FIG. 2A)): 0; number of cells adhered without rolling (dynamic flow, shear stresses 12 to 1.2 dynes/cm^2 (FIG. 6A)): less than 5 /field |
| VI^3 NeuAcnLc6 Cer [Fr. 7] | – | – | – | no cell adhesion | – | – |
| X^3 NeuAcVII^3 FucV^3 FucnLc10 Cer [Fr. 13-1] | – | – | – | – | more frequent at 4.8 and 2.4 than at 1.2 dynes/cm^2; also recorded: caused strong rolling | shear stress at which plain rolling and rolling followed by adhesion was maximal / most clearly observed (dynamic flow, 12, 4.8, 2.4, 1.2 and 0.6 dynes/cm^2 (FIGS. 6A-6D)): 2.4 dynes/cm^2; shear stress at which rolling (rolling/adhesion) was highest (dynamic flow, ganglioside on 1 μm beads (FIGS. 2D, 2E)): 4.8 dynes/cm^2 |
| X^3 NeuAcVII^3 FucnLc10 Cer [Fr. 12-2] | lower than for Frs. 13-1 and 14 (FIGS. 2C and 2E), but comparable to SLe^x -Le^x; also recorded: lower than for Fr. 13-1 and 14 (FIG. 2C and FIG. 2E), but comparable to SLe^x -Le^x | – | – | – | – | Number of E-selectin expressing cells adhered on myelorollin under dynamic flow, column 5 (0.6-1.2 dynes/cm^2, column head 5 (not explained)): 5 (±2); Number of E-selectin expressing cells adhered on myelorollin under dynamic flow, column 10 (0.6-1.2 dynes/cm^2, column head 10 (not explained)): 3 (±1); shear stress at which rolling was highest (dynamic flow, ganglioside on 4 μm beads (FIG. 2B)): 4.8 dynes/cm^2 |
